What was measured:
[1] = system: obese female hyperinsulinemic nondiabetic Zucker rats; assay: oral glucose tolerance test after 35 days treatment of obese Zucker rats; type: in vivo, rat; details: FIG. 1
Description: 14 obese female hyperinsulinemic nondiabetic Zucker rats were treated with the test compound 6-chloro-3-(1-methylcylodopropyl)amino-4H-thieno[3,2-e]-1,2,4-thiadiazine 1,1-dioxide and 14 were treated with vehicle for 35 days. After treatment, oral glucose tolerance was tested and found to be improved in animals treated with 6-chloro-3-(1-methylcylodopropyl)amino-4H-thieno[3,2-e]-1,2,4-thiadiazine 1,1-dioxide and the improvement was associated with decreased hyperinsulinemia.

[2] = system: women with Polycystic Ovary Syndrome (PCOS); details: Nestler et al. 1989; cited from earlier work
[3] = system: KATP-channels on pancreatic β-cells; details: by activation of KATP-channels on pancreatic β-cells; Pirotte et al. 1993, 1994; cited from earlier work

| SMILES | hyperinsulinemia ([1]; associated with the improved glucose tolerance) | oral glucose tolerance ([1]; compared with vehicle) | concentrations of serum testosterone [2] | glycaemia (adverse effect due to the reduction in insulin) [2] | hyperinsulinaemia [2] | insulin release [3] |
| --- | --- | --- | --- | --- | --- | --- |
| CC1(NC2=NS(=O)(=O)c3sc(Cl)cc3N2)CC1 [6-chloro-3-(1-methylcylodopropyl)amino-4H-thieno[3,2-e]-1,2,4-thiadiazine 1,1-dioxide] | decreased | improved | – | – | – | – |
| CC1=Nc2ccc(Cl)cc2S(=O)(=O)N1 [diazoxide, 7-chloro-3-methyl-2H-1,2,4-benzothiadiazine 1,1-dioxide] | – | – | reduce | significantly hyperglycemic | reduce | inhibit |
